Source: patent publication US20240390295A1, “METHODS FOR TREATING DEPRESSION” (JANSSEN PHARMACEUTICA NV, priority 2020, published 2024)

Experiments:
[1] = test system: adult patients (aged 18-64 years) with TRD; settings: cited from earlier work
[2] = test system: adult patients (aged 18-64 years) with TRD; experiment: CADSS-defined dissociation (CADSS total score >4); format: in vivo, human; settings: for mean individual CADSS scores at recurrence: across follow-up timeframes
Description: One of skill in the art would readily be able to measure a patient's adverse events from experience and one or more tools utilized to make such assessments. For example, the Clinician-Administered Dissociative States Scale (CADSS) is an technique utilized to measure present-state dissociative symptoms, and, thus, may be utilized to assess treatment-emergent dissociative symptoms. The CADSS consists of 23 subjective items, divided into 3 components: Depersonalization (Items 3 to 7, 20, and 23), derealization (Items 1, 2, 8 to 13, 16 to 19, and 21) and amnesia (Items 14, 15, and 22). Participant's responses are coded on a 5-point scale (0=not at all through to 4=extremely). Thus, higher CADSS values represent a worse dissociative state, whereas lower CADSS values are indicative of a mild dissociative state.
(§1) Vital signs, the Clinician-Administered Dissociative States Scale (CADSS), and the Modified Observer's Assessment of Alertness/Sedation (MOAA/S) were assessed at baseline and all treatment sessions (predose, and at 40 minutes, 1 hour [vital signs only unless spontaneously reported by the patient], and 1.5 hours postdose). Routine blood pressure (BP) readings were conducted at each treatment session, with elevations reported as AEs based on the clinician's judgement. The CADSS assessed treatment-emergent dissociative symptoms and consists of 23 questions, each coded on a 5-point scale (0=not at all, 1-mild, 2-moderate, 3=severe, 4-extreme), yielding a total score 0-92.11 A CADSS total score >4 indicated the presence of dissociative symptoms. The MOAA/S assessed treatment-emergent sedation: scores range from (=no response to painful stimulus to 5=readily responds to name spoken in normal tone. Any decrease in MOAA/s from pre-dose (score <5) indicated some degree of sedation. An abnormal elevation in BP was defined as systolic BP ≥180 mmHg and ≥20 mmHg higher than baseline and/or diastolic BP ≥105 mmHg and ≥15 mmHg greater than baseline.
(§2) This analysis included any treatment sessions in which patients received ESK (either open-label or blinded). The occurrence and severity of AEs were assessed within the following timeframes: Month 1 (Week 1 and Weeks 2-4), Month 2 (Weeks 5-8), Months 3-6 and Months 6-12. Severity of clinician-reported AEs were scored as 0 (no AE), 1 (mild), 2 (moderate), and 3 (severe). To examine AEs in individual patients over time, only patients who received at least one ESK dose in the following period were included in the analyses of each respective period. Thus, patient data were retained in (i) Week 1 if the patient received ≥1 ESK dose in Weeks 2-4, (ii) Weeks 2-4 if the patient received ≥1 ESK dose in Weeks 5-8, (iii) Weeks 5-8 if the patient received ≥1 ESK dose in Months 3-6, and (iv) Months 3-6 if the patient received ≥1 ESK dose in Months 6-12.

[3] = test system: adult patients (aged 18-64 years) with TRD; experiment: MOAA/S-defined sedation (score <5); format: in vivo, human
Experimental: For measuring treatment session induced sedation, one of skill in the art may use the Modified Observer's Assessment of Alertness/Sedation Scale (MOAA/S). […] For subjects with a score of 4, the assessment should be repeated every 15 minutes. And for subjects with a score of ≤3, the assessment should be repeated every 5 minutes until the score. In some embodiments, the results of the MOAA/S may be correlated to levels of sedation defined by the American Society of Anesthesiologists (ASA) continuum.
as §1, §2

[4] = Months 3-6, overall rate for timeframe
[5] = Months 6-12, AE twice in Week 1
[6] = Months 6-12, overall rate for timeframe
[7] = Week 1, overall rate for timeframe
[8] = Weeks 2-4, overall rate for timeframe
[9] = Weeks 5-8, overall rate for timeframe
[10] = human, in vivo, other: intranasal

SMILES: CN[C@]1(c2ccccc2Cl)CCCCC1=O [esketamine, (S)-2-(2-chlorophenyl)-2-(methylamino)cyclohexanone]
- incidence of dissociation, dizziness, nausea, sedation, vertigo ([1]; ESK plus OAD therapy): ≥ 5%
- incidence relative to placebo plus an OAD ([1]; five most common treatment-emergent events): ≥ 2 fold
- CADSS-defined dissociation ([2]; Months 3-6, AE once in Week 1): 42.7%
- CADSS-defined dissociation ([2]; Months 3-6, AE twice in Week 1): 61.3%
- CADSS-defined dissociation ([2]; Months 3-6, No AE in Week 1): 19.4%
- CADSS-defined dissociation [2, 4]: 38.6%
- CADSS-defined dissociation ([2]; Months 6-12, AE once in Week 1): 26.8%
- CADSS-defined dissociation [2, 5]: 38.7%
- CADSS-defined dissociation ([2]; Months 6-12, No AE in Week 1): 15.9%
- CADSS-defined dissociation [2, 6]: 25.9%
- CADSS-defined dissociation [2, 7]: 56.6%
- CADSS-defined dissociation ([2]; Weeks 2-4, AE once in Week 1): 59.1%
- CADSS-defined dissociation ([2]; Weeks 2-4, AE twice in Week 1): 88.8%
- CADSS-defined dissociation ([2]; Weeks 2-4, No AE in Week 1): 24.8%
- CADSS-defined dissociation [2, 8]: 53.1%
- CADSS-defined dissociation ([2]; Weeks 5-8, AE once in Week 1): 32.5%
- CADSS-defined dissociation ([2]; Weeks 5-8, AE twice in Week 1): 64.6%
- CADSS-defined dissociation ([2]; Weeks 5-8, No AE in Week 1): 15.6%
- CADSS-defined dissociation [2, 9]: 34.9%
- patients with maximum CADSS score >42 [2, 10]: < 3 patients
- measure-based dissociation not reported during Week 1, patients ([2]; human, in vivo, other: nasal spray (intranasal), 1 week): 43%
- mean individual CADSS scores at recurrence ([2]; maximum CADSS total score <=14): 1.2-1.4
- mean individual CADSS scores at recurrence ([2]; maximum CADSS total scores 15-24 and 24-42): 1.3-2.1
- MOAA/S-defined sedation ([3]; Months 3-6, AE once in Week 1): 47.7%
- MOAA/S-defined sedation ([3]; Months 3-6, AE twice in Week 1): 74.5%
- MOAA/S-defined sedation ([3]; Months 3-6, No AE in Week 1): 23.8%
- MOAA/S-defined sedation [3, 4]: 37.5%
- MOAA/S-defined sedation ([3]; Months 6-12, AE once in Week 1): 38.3%
- MOAA/S-defined sedation [3, 5]: 51.8%
- MOAA/S-defined sedation ([3]; Months 6-12, No AE in Week 1): 18.8%
- MOAA/S-defined sedation [3, 6]: 28.4%
- MOAA/S-defined sedation [3, 7]: 38.1%
- MOAA/S-defined sedation ([3]; Weeks 2-4, AE once in Week 1): 65.7%
- MOAA/S-defined sedation ([3]; Weeks 2-4, AE twice in Week 1): 95.4%
- MOAA/S-defined sedation ([3]; Weeks 2-4, No AE in Week 1): 22.0%
- MOAA/S-defined sedation [3, 8]: 44.2%
- MOAA/S-defined sedation ([3]; Weeks 5-8, AE once in Week 1): 42.0%
- MOAA/S-defined sedation ([3]; Weeks 5-8, AE twice in Week 1): 81.4%
- MOAA/S-defined sedation ([3]; Weeks 5-8, No AE in Week 1): 15.8%
- MOAA/S-defined sedation [3, 9]: 33.1%
- MOAA/S mean recurrence scores ([3]; after Week 1 or Week 4, regardless of highest MOAA/S): 3.5-4.0
- MOAA/S mean recurrence score, single patient exception [3, 10]: 3.25
- measure-based sedation not reported during Week 1, patients ([3]; human, in vivo, other: intranasal, 1 week): 62%
